“And” between values parts separate entries of the source, which are not always exact repeats. Equal values may be shown once. Read-outs that look alike come from different tables or passages of the source.
Experiment: Phase 1 Stage 1 clinical pharmacokinetics of SC ZA co-administered with rHuPH20
Assay type: in vivo, human
Details: for half-life / AUC(0-t) / Cmax / AUC(0-inf) / Tmax: human, serum; for half-life: read-out: T½ λz (converted); for AUC(0-inf): read-out: AUC (0-inf); for Tmax: read-out: Tmax
Description: A pharmacokinetic study of zoledronic acid (ZA) co-administered with rHuPH20 in human subjects was conducted. The primary objective of the study was to determine the bioavailability of zoledronic acid dosed via subcutaneous (SC) co-administration with human recombinant hyaluronidase PH20 (rHuPH20). […] The patients were administered the prescribed dosage formulations as follows: Cohorts 1-5 were administered a single subcutaneous infusion in a dosage volume of 100 ml at a rate of 3 mL/min. […] The dosing solution is administered via needle or catheter into the SC space of the left anterior thigh (midway between the anterior iliac crest and the cephalad border of the patella). For cohorts 1-5, the dosing solutions were administered by a controlled rate infusion pump at approximately 3 mL/minute. […] The dosing solutions were administered by syringe push bolus injection. […] Serum concentration of ZA was determined using a qualified LC-MS-MS assay after derivatization with diazomethane (Zhu, L S et al. (2006) Rapid Commun. […] The assay range was from 2.0 to 400 ng/mL with a lower limit of quantitation (LLOQ) at 2.0 ng/mL. […] Non-compartmental analysis was used for derivation of primary and secondary pharmacokinetic (PK) parameters. […] Summary statistics (mean, standard deviation, and median) were calculated using JMP or Microsoft Excel.

[1] = ZA 2 mg SC + 24000 U rHuPH20, mean, n=3
[2] = ZA 2 mg SC + 24000 U rHuPH20, median, n=3
[3] = ZA 2 mg SC, 100 mL, 24000 Units rHuPH20, n=3
[4] = ZA 5 mg SC + 24000 U rHuPH20, individual subjects
[5] = ZA 5 mg SC + 24000 U rHuPH20, mean, n=3
[6] = ZA 5 mg SC + 24000 U rHuPH20, median, n=3
[7] = ZA 5 mg SC, 100 mL, 24000 Units rHuPH20, n=3
[8] = ZA 0.25-5 mg SC, 100 mL, 24000 Units rHuPH20, n=15
[9] = sc, 0.0196 mg/kg, Subj 27, ZA 0.0196 mg/kg SC, inf […], PH20 23976 U
[10] = sc, 0.0339 mg/kg, Subj 29, ZA 0.0339 mg/kg SC, inf 0.556 hr, PH20 24000 U
[11] = sc, 0.0608 mg/kg, Subj 68, ZA 0.0608 mg/kg SC, inf […], PH20 2880 U
[12] = sc, 0.0653 mg/kg, Subj 41, ZA 0.0653 mg/kg SC, inf […], PH20 12216 U
[13] = sc, 0.0691 mg/kg, Subj 39, ZA 0.0691 mg/kg SC, inf 0.552 hr, PH20 23856 U
[14] = sc, 0.0706 mg/kg, Subj 38, ZA 0.0706 mg/kg SC, inf 0.554 hr, PH20 23952 U
[15] = sc, 0.0717 mg/kg, Subj 67, ZA 0.0717 mg/kg SC, inf […], PH20 2880 U
[16] = sc, 0.0776 mg/kg, Subj 70, ZA 0.0776 mg/kg SC, inf […], PH20 2928 U
[17] = sc, 0.0781 mg/kg, Subj 71, ZA 0.0781 mg/kg SC, inf […], PH20 6000 U

## O=P(O)(O)C(O)(Cn1ccnc1)P(=O)(O)O [ZA, 1-hydroxy-2-(1H-imidazol-1-yl)ethylidene-1,1-bisphosphonic acid]
ZA 2 mg SC + 24000 U rHuPH20, individual subjects
  T½elim: 12.72 h (2×) and 22.02 h
[1]
  AUC (0-∞)/D: 0.00791 kg·h/mL
  Cmax/D: 0.00176 kg/mL
  T½elim: 15.82 h
[2]
  AUC (0-∞)/D: 0.00809 kg·h/mL
  Cmax/D: 0.00175 kg/mL
  T½elim: 12.72 h
ZA 2 mg SC, 100 mL, 24000 Units rHuPH20, individual subjects
  MAT (mean absorption time = SC MRT − IV MRT): 0.47 h and 0.94 h and 1.39 h
[3]
  MAT, Mean for the dose group: 0.93 h
  MAT, Median for the dose group: 0.94 h
[4]
  AUC (0-12h): 477.36 ng·h/mL and 575.89 ng·h/mL
  AUC (0-∞): 729.31 ng·h/mL
  AUC (0-∞)/D: 0.00789 kg·h/mL and 0.00901 kg·h/mL and 0.01049 kg·h/mL
  Cmax/D: 0.00167 kg/mL and 0.00165 kg/mL and 0.00211 kg/mL
  MRT: 13.81 h
  T½elim: 23.36 h and 24.45 h and 26.05 h
[5]
  AUC (0-∞)/D: 0.00913 kg·h/mL
  Cmax/D: 0.00181 kg/mL
  T½elim: 24.62 h
[6]
  AUC (0-∞)/D: 0.00901 kg·h/mL
  Cmax/D: 0.00167 kg/mL
  T½elim: 24.45 h
ZA 5 mg SC, 100 mL, 24000 Units rHuPH20, individual subjects
  MAT (mean absorption time = SC MRT − IV MRT): 1.74 h and 4.61 h and 3.46 h
[7]
  MAT, Mean for the dose group: 3.27 h
  MAT, Median for the dose group: 3.46 h
[8]
  MAT, Mean for all dose groups: 1.64 h
  MAT, Median for all dose groups: 1.39 h
0.082 mg/kg, Subj 63, ZA 0.0820 mg/kg SC, inf 0.250 hr, PH20 6000 U
  half-life: 20.5 h
sc, 0.0196 mg/kg, AUC (0-12 h), Subj 27, ZA 0.0196 mg/kg SC, inf […], PH20 23976 U
  AUC(0-t): 104 ng·h/mL
sc, 0.0196 mg/kg, AUC (0-24 h), Subj 27, ZA 0.0196 mg/kg SC, inf […], PH20 23976 U
  AUC(0-t): 116 ng·h/mL
sc, 0.0196 mg/kg, AUC (0-48 h), Subj 27, ZA 0.0196 mg/kg SC, inf […], PH20 23976 U
  AUC(0-t): 119 ng·h/mL
[9]
  Cmax: 25 ng/mL
  AUC(0-inf): 120 ng·h/mL
  Tmax: 0.72 h
sc, 0.0196 mg/kg
  half-life: 6.53 h
sc, 0.0339 mg/kg, AUC (0-12 h), Subj 29, ZA 0.0339 mg/kg SC, inf 0.556 hr, PH20 24000 U
  AUC(0-t): 217 ng·h/mL
sc, 0.0339 mg/kg, AUC (0-24 h), Subj 29, ZA 0.0339 mg/kg SC, inf 0.556 hr, PH20 24000 U
  AUC(0-t): 231 ng·h/mL
sc, 0.0339 mg/kg, AUC (0-48 h), Subj 29, ZA 0.0339 mg/kg SC, inf 0.556 hr, PH20 24000 U
  AUC(0-t): 236 ng·h/mL
[10]
  Cmax: 62.8 ng/mL
  AUC(0-inf): 241 ng·h/mL
  Tmax: 1.29 h
sc, 0.0608 mg/kg, AUC (0-12 h), Subj 68, ZA 0.0608 mg/kg SC, inf […], PH20 2880 U
  AUC(0-t): 456 ng·h/mL
sc, 0.0608 mg/kg, AUC (0-24 h), Subj 68, ZA 0.0608 mg/kg SC, inf […], PH20 2880 U
  AUC(0-t): 503 ng·h/mL
sc, 0.0608 mg/kg, AUC (0-48 h), Subj 68, ZA 0.0608 mg/kg SC, inf […], PH20 2880 U
  AUC(0-t): 557 ng·h/mL
[11]
  Cmax: 144 ng/mL
  AUC(0-inf): 630 ng·h/mL
  Tmax: 1 h
sc, 0.0608 mg/kg
  half-life: 27.9 h
sc, 0.0653 mg/kg, AUC (0-12 h), Subj 41, ZA 0.0653 mg/kg SC, inf […], PH20 12216 U
  AUC(0-t): 487 ng·h/mL
sc, 0.0653 mg/kg, AUC (0-24 h), Subj 41, ZA 0.0653 mg/kg SC, inf […], PH20 12216 U
  AUC(0-t): 531 ng·h/mL
sc, 0.0653 mg/kg, AUC (0-48 h), Subj 41, ZA 0.0653 mg/kg SC, inf […], PH20 12216 U
  AUC(0-t): 597 ng·h/mL
[12]
  Cmax: 141 ng/mL
  AUC(0-inf): 736 ng·h/mL
  Tmax: 1.01 h
sc, 0.0653 mg/kg
  half-life: 42.8 h
sc, 0.0691 mg/kg, AUC (0-12 h), Subj 39, ZA 0.0691 mg/kg SC, inf 0.552 hr, PH20 23856 U
  AUC(0-t): 574 ng·h/mL
sc, 0.0691 mg/kg, AUC (0-24 h), Subj 39, ZA 0.0691 mg/kg SC, inf 0.552 hr, PH20 23856 U
  AUC(0-t): 619 ng·h/mL
sc, 0.0691 mg/kg, AUC (0-48 h), Subj 39, ZA 0.0691 mg/kg SC, inf 0.552 hr, PH20 23856 U
  AUC(0-t): 667 ng·h/mL
[13]
  Cmax: 147 ng/mL
  AUC(0-inf): 727 ng·h/mL
  Tmax: 0.79 h
sc, 0.0691 mg/kg
  half-life: 26.1 h
sc, 0.0706 mg/kg, AUC (0-12 h), Subj 38, ZA 0.0706 mg/kg SC, inf 0.554 hr, PH20 23952 U
  AUC(0-t): 477 ng·h/mL
sc, 0.0706 mg/kg, AUC (0-24 h), Subj 38, ZA 0.0706 mg/kg SC, inf 0.554 hr, PH20 23952 U
  AUC(0-t): 524 ng·h/mL
sc, 0.0706 mg/kg, AUC (0-48 h), Subj 38, ZA 0.0706 mg/kg SC, inf 0.554 hr, PH20 23952 U
  AUC(0-t): 580 ng·h/mL
[14]
  Cmax: 117 ng/mL
  AUC(0-inf): 637 ng·h/mL
  Tmax: 1.3 h
sc, 0.0717 mg/kg, AUC (0-12 h), Subj 67, ZA 0.0717 mg/kg SC, inf […], PH20 2880 U
  AUC(0-t): 565 ng·h/mL
sc, 0.0717 mg/kg, AUC (0-24 h), Subj 67, ZA 0.0717 mg/kg SC, inf […], PH20 2880 U
  AUC(0-t): 630 ng·h/mL
sc, 0.0717 mg/kg, AUC (0-48 h), Subj 67, ZA 0.0717 mg/kg SC, inf […], PH20 2880 U
  AUC(0-t): 683 ng·h/mL
[15]
  Cmax: 156 ng/mL
  AUC(0-inf): 725 ng·h/mL
  Tmax: 0.74 h
sc, 0.0717 mg/kg
  half-life: 18.3 h
sc, 0.0776 mg/kg, AUC (0-12 h), Subj 70, ZA 0.0776 mg/kg SC, inf […], PH20 2928 U
  AUC(0-t): 573 ng·h/mL
sc, 0.0776 mg/kg, AUC (0-24 h), Subj 70, ZA 0.0776 mg/kg SC, inf […], PH20 2928 U
  AUC(0-t): 616 ng·h/mL
sc, 0.0776 mg/kg, AUC (0-48 h), Subj 70, ZA 0.0776 mg/kg SC, inf […], PH20 2928 U
  AUC(0-t): 658 ng·h/mL
[16]
  Cmax: 215 ng/mL
  AUC(0-inf): 690 ng·h/mL
  Tmax: 0.68 h
sc, 0.0776 mg/kg
  half-life: 19.4 h
sc, 0.0781 mg/kg, AUC (0-12 h), Subj 71, ZA 0.0781 mg/kg SC, inf […], PH20 6000 U
  AUC(0-t): 592 ng·h/mL
sc, 0.0781 mg/kg, AUC (0-24 h), Subj 71, ZA 0.0781 mg/kg SC, inf […], PH20 6000 U
  AUC(0-t): 629 ng·h/mL
sc, 0.0781 mg/kg, AUC (0-48 h), Subj 71, ZA 0.0781 mg/kg SC, inf […], PH20 6000 U
  AUC(0-t): 665 ng·h/mL
[17]
  Cmax: 198 ng/mL
  AUC(0-inf): 693 ng·h/mL
  Tmax: 0.88 h

From US20090311237A1, “Combination therapy using a soluble hyaluronidase and a bisphosphonate” (priority 2008, published 2009)
